Like-named read-outs stand apart in the source and are kept apart here.
Tests used:
ZIKV PRVABC59 = assay: microbe, parasite or virus in culture; type: cell-based; conditions: Zika virus; CPE-protection
WNV NY-99 = assay: CPE-protection assay, WNV; type: cell-based, West Nile virus; conditions: West Nile virus
JEV SA-14 = assay: CPE-protection assay, JEV; type: cell-based, Japanese encephalitis virus; conditions: Japanese encephalitis virus
Vero76 = conditions: African green monkey
ZIKV-RLuc NS4B V248G = type: cell-based, Zika virus
ZIKV viral E protein = assay: Viral E protein expression by fluorescence microscopy (4G2 antibody); type: cell-based, Zika virus; conditions: ZIKV-infected Vero76, 2 days post infection
ZIKV = assay: Combination treatment and synergy scoring, CPE-based anti-ZIKV assay; type: cell-based; conditions: Zika virus; single agent, Fig 6A; read-out: EC50 as a single agent in the dose-response anti-ZIKV assay
in vitro = conditions: African green monkey, CC50 Vero76
ZIKV Ib H30656 = assay: microbe, parasite or virus in culture; type: cell-based; conditions: Zika virus; CPE-protection
ZIKV DAK-41525-MA = assay: CPE-protection assay, ZIKV DAK-41525-MA; type: cell-based, Zika virus; conditions: Zika virus
CHIKV = assay: microbe, parasite or virus in culture; type: cell-based; conditions: Chikungunya virus, Vero 76, read-out: EC50-CPE CHIKV
ZIKV FLR = assay: microbe, parasite or virus in culture; type: cell-based; conditions: Zika virus; CPE-protection
ZIKV-RLuc NS4B mutants = type: cell-based, Zika virus
ZIKV PLCal [1] = assay: Virus yield (titer) reduction assay in Vero 76 cells; type: cell-based, Zika virus; conditions: 5 µM, Vero 76, 0.05 m.o.i., two days
ZIKV-RLuc NS4B A245T = type: cell-based, Zika virus
ZIKV-RLuc = assay: microbe, parasite or virus in culture; type: cell-based, Zika virus; conditions: wild type ZIKV-RLuc, Vero 76, MOI 0.1, three days, read-out: EC50 ZIKV-RLuc
ZIKV-RLuc NS4B V241L = type: cell-based, Zika virus
YFV 17D = assay: microbe, parasite or virus in culture; type: cell-based; conditions: Yellow fever virus; CPE-protection
IFN-α/β induction = assay: Interferon response measurement in ZIKV-infected Huh 7.5.1 cells; type: cell-based; conditions: Huh 7.5.1, ZIKV MOI 3, 24 h.p.i.
Procedure: Huh 7.5.1. cells were infected with ZIKV with/without test compound treatment, and the supernatants were harvested at 24 h.p.i. and tested for interferon- α/β (IFN- α/β) following the manufacturer’s protocol. HEK-Blue IFN-α/β cells (5000 cells/well) were incubated in 96-well plates with 20 µL of test samples for overnight. The following day, 20 µL of the cell supernatant from the HEK-Blue IFN-α/β cells were further incubated with 180 µL of pre-warmed Quanti-blue SEAP reagent (Invivogen) for 2 hours and the O.D. A620 was measured using a Cytation 1 (Agilent). As a positive and negative control, recombinant human IFN-α2b (InvivoGen, 30 pg/ml) and conditioned media from mock-infected Huh 7.5.1. were used.

ZIKV PLCal [2] = assay: Virus yield (titer) reduction assay in Huh 7.5.1 cells; type: cell-based, Zika virus; conditions: 1 µM
[3] = tested on: cleavage between NS4B and NS5; assay: NS4B-NS5 polyprotein processing; type: cell-based, Zika virus; conditions: HEK-293T
ZIKV MR766 = assay: microbe, parasite or virus in culture; type: cell-based; conditions: Zika virus; CPE-protection
NS3-NS4B interaction = NS3-NS4B interaction (Zika virus, UniProt A0A142I5B9); type: cell-based
ZIKV PLCal [4] = assay: CPE-based anti-ZIKV concentration-response assay (96-well); type: cell-based, Zika virus; conditions: Zika virus, 72 h; Vero 76, MOI 0.05, 3-day incubation, CellTiter-Glo; read-out: EC50-CPE ZIKV-PLCal
DENV Type 4 H241 = assay: microbe, parasite or virus in culture; type: cell-based; conditions: Dengue virus, read-out: EC50 DENV Type 4 H241

Which EC50 (ZIKV PRVABC59) does the source give for `CC(C)(C)c1ccc(C(=O)NC2CCCC2)cc1` [MWAC-3475] here?
The EC50 was 910 ± 200 nM.

What about the EC50 (WNV NY-99) of the same compound?
Its EC50 is over 50000 nM.

And the EC50 (JEV SA-14)?
Its EC50 is over 50000 nM.

And the CC50 (Vero76)?
The CC50 was 28100 ± 6500 nM.

And the EC50 (ZIKV-RLuc NS4B V248G)?
Its EC50 is 5120 nM.

And the “Fold-increase / fold-change of EC50, NS4B V248G vs wild type” value (ZIKV-RLuc NS4B V248G)?
Its value is 13.20.

What about the “intensity and abundance of viral E protein (4G2 antibody)” value (ZIKV viral E protein) of the same compound?
Its value is “decreased in a concentration-dependent manner”.

And the EC50 (ZIKV)?
The EC50 was 616 nM.

What about the CC50 (in vitro) of the same compound?
Its CC50 is 28000 nM.

And the EC50 (ZIKV Ib H30656)?
The EC50 was 1010 ± 210 nM.

And the EC50 (ZIKV DAK-41525-MA)?
The EC50 was 1540 ± 270 nM.

What about the EC50 (CHIKV) of the same compound?
The EC50 was over 50000 nM.

And the EC50 (ZIKV FLR)?
Its EC50 is 1130 ± 110 nM.

What about the “fold decrease in potency by NS4B mutations” value (ZIKV-RLuc NS4B mutants) of the same compound?
Its value is 6- to 55 fold.

And the “reduction in progeny virus titers” value (ZIKV PLCal [1])?
The value was over 1000 fold.

What about the EC50 (ZIKV-RLuc NS4B A245T) of the same compound?
Its EC50 is 2290 nM.

What about the “Fold-increase / fold-change of EC50, NS4B A245T vs wild type” value (ZIKV-RLuc NS4B A245T) of the same compound?
Its value is 5.91.

And the EC50 (ZIKV-RLuc; Zika virus, Vero 76, 72 h)?
The EC50 was 390 nM.

And the EC50 (ZIKV-RLuc)?
Its EC50 is 340 ± 280 nM.

And the EC50 (ZIKV-RLuc NS4B V241L)?
The EC50 was 21400 nM.

What about the “Fold-increase / fold-change of EC50, NS4B V241L vs wild type” value (ZIKV-RLuc NS4B V241L) of the same compound?
The value was 55.24.

And the EC50 (YFV 17D)?
Its EC50 is over 50000 nM.

What about the “induction of interferon in the infected cells” value (IFN-α/β induction) of the same compound?
Its value is “did not inhibit either of these steps”.

And the “VYR: Virus Yield reduction (Log 10)” value (ZIKV PLCal [2])?
The value was -0.36 ± 0.07 Log 10.

What about the “effect on cleavage between NS4B and NS5” value [3] of the same compound?
The value was “no such effect was detected”.

And the EC50 (ZIKV MR766)?
The EC50 was 5930 ± 1260 nM.

And the “disruption of NS3-NS4B interaction” value (NS3-NS4B interaction)?
Its value is “did not inhibit either of these steps”.

What about the EC50 (ZIKV PLCal [4]) of the same compound?
Its EC50 is 630 ± 650 nM.

What about the EC50 (DENV Type 4 H241) of the same compound?
Its EC50 is over 50000 nM.

From PMC13065080, “Discovery of a potent anti-Zika virus benzamide series targeting the viral protein NS4B” (PLOS Pathogens, 2026)
